From patent publication US4377576A, “5-(Heterocyclic amino-propionyl)-5,10-dihydro-11H-dibenzo[b,e][1,4]diazepin-11-ones” (Karl Thomae Gesellschaft mit beschrankter Haftung, priority 1980, dated 1983)
Structures can show the parent of a compound that is named as a salt.

How the values were obtained:
[1] = test system: gastric secretion (free and total hydrochloric acid in the gastric fluid); assay: Inhibition of gastric fluid secretion (liberation of acid), pylorus ligature, method of Shay et al.; type: in vivo, male Crl:COBS (WI) BR Albino rats; conditions: Rat, i.d., 4 hours after pylorus ligature
Protocol: The inhibiting activity on the gastric secretion was tested in male Crl:COBS (WI) BR Albino rats having a weight of 100 to 125 gm, according to the method of Shay et al., Gastroenterology 26, 906 (1954). The rats were fasted for 24 hours and then anesthetized with ether. The […] was opened, and the pylorus was tied up. […] The control animals received the same volume of the vehicle (0.2% methyl cellulose solution). After 4 hours the animals were killed by dislocating the neck vertebra, the stomachs were removed, opened along the great curvature and the gastric fluid collected. The free and total hydrochloric acid in the gastric fluid was measured by titration with N/10 sodium hydroxide solution. The results were determined in percent from the data received from the treated and untreated animals. The ED50 values were calculated by linear regression analysis of the probits according to the method described by D. J. Finney, Probit Analysis, Cambridge University Press, 1971.

stomach ulcers = assay: Inhibiting effect on the formation of stomach ulcers (acetyl salicylic acid and close-meshed wire cage), method of P. A. Brown; type: in vivo, female Crl:COBS-CD(SD)Br rats; conditions: po, 0.5 h; Rat, p.o., acetyl salicylic acid 30 min after compound, then wire cage; read-out: Ulcer Inhibition ED50
Protocol: The inhibiting effect on the formation of stomach ulcers was tested in female Crl:COBS-CD(SD)Br rats having a weight of 130 to 160 gm, according to the method of P. A. Brown, European J. Pharmacol. 51, 275 (1978). The animals were fasted for 24 hours, and the compounds were suspended in a 0.2% methyl cellulose solution and administered to the animals using an esophageal tube. After 30 minutes the animals received acetyl salicylic acid perorally at a dose of 8 mg/kg, and after another 30 minutes the animals were placed at room temperature into a close-meshed wire cage. After one hour the animals were killed by dislocating the neck vertebra, the stomach was removed, opened by cutting along the great curvature, the inner side was outwardly spread out on a test tube, and the presence of stomach ulcers was recorded. The activity of the compounds was determined by counting the numbers of stomachs which were free of ulcers. The ED50 was calculated according to the method described by J. T. Litchfield and F. Wilcoxon, J. Pharmac. Exp. Therap. 96, 99 (1949).

[2] = Mydriasis: effect on the size of the pupil; design: species or system male Crl:COBS-CD(SD)BR rats; conditions: in vivo, po; Rat, percent of maximum pupil diameter obtained by atropine, 30-120 min
Protocol: The effect on the size of the pupil was tested in male Crl:COBS-CD(SD)BR rats having a body weight of 100 to 130 gm by using a […]-binocular microscope with a graduated lens and a 10-fold magnification. The compounds were suspended in a 0.2% methyl cellulose solution and administered using an esophageal tube; groups of 5 animals were used per dose. The control animals received the same volume (1 ml/100 gm of body weight) of the vehicle. The diameter of the pupil was measured before administering the test compound, and 30, 60, 90 and 120 minutes after the treatment. The activity was expressed in percent with regard to the maximum diameter obtained by means of atropine. The ED50 was determined by linear regression analysis of the probits according to the method described by D. J. Finney (supra).

Acute toxicity = conditions: in vivo, po; Mouse
Protocol: The acute toxicity was determined in male CrL-COBS-CD-I(ICR) mice of an average body weight of 22 to 24 gm which had been fasted for 24 hours. Different doses of each compound were administered to groups of 5 to 10 animals by means of an esophageal tube, and the LD50 -values were calculated by the method of D. J. Finney (supra).

Row | SMILES | ED50 [1] | ED50 (stomach ulcers) | ED50 [2] | LD50 (Acute toxicity)
1 | Cl.O=C1Nc2ccccc2N(C(=O)CCN2CCCC2)c2ccccc21 [A, 5,10-dihydro-5-(3-pyrrolidino-propionyl)-11H-dibenzo[b,e][1,4]diazepin-11-one hydrochloride] | 0.2 mg/kg | 1.27 mg/kg | 3.61 mg/kg | 609 mg/kg
2 | CN1C(=O)c2ccccc2N(C(=O)CCN2CCCC2)c2ccccc21 [B, 5,10-dihydro-10-methyl-5-(3-pyrrolidino-propionyl)-11H-dibenzo[b,e,][1,4]diazepin-11-one hydrochloride] | 0.73 mg/kg | 2.05 mg/kg | – | 574 mg/kg
3 | Cl.O=C1Nc2ccccc2N(C(=O)CCN2CCCCC2)c2ccccc21 [C, 5,10-dihydro-5-(3-piperidino-propionyl)-11H-dibenzo[b,e][1,4]diazepin-11-one hydrochloride] | 1.6 mg/kg | 2.1 mg/kg | 3.84 mg/kg | 813 mg/kg
4 | O=C1Nc2ccccc2N(C(=O)CN2CCCC2)c2ccccc21 [D, 5,10-dihydro-5-(pyrrolidino-acetyl)-11H-dibenzo[b,e][1,4]diazepin-11-one] | 8.15 mg/kg | 10.2 mg/kg | 9.91 mg/kg | 860 mg/kg
5 | CN1C(=O)c2ccccc2N(C(=O)CN2CCCC2)c2ccccc21 [E, 5,10-dihydro-10-methyl-5-(pyrrolidino-acetyl)-11H-dibenzo[b,e,][1,4]diazepin-11-one hydrochloride] | 18.1 mg/kg | 8.4 mg/kg | 9.84 mg/kg | 816 mg/kg
6 | O=C1Nc2ccccc2N(C(=O)CN2CCCCC2)c2ccccc21 [F, 5,10-dihydro-5-(piperidino-acetyl)-11H-dibenzo[b,e,][1,4]diazepin-11-one] | 6.17 mg/kg | 10.4 mg/kg | 5.82 mg/kg | 600 mg/kg
